Results taken from paper PMC7495385, “Role of Escape Mutant-Specific T Cells in Suppression of HIV-1 Replication and Coevolution with HIV-1” (Journal of Virology, 2020).

Experiments:
Assay type in all cases: cell-based, human
[1] = tested on: RI8-6T-specific T cell clone 2F (KI-855); test: ICS assay, 721.221-B*52:01 cells prepulsed with peptide, clone 2F from KI-855; settings: RI8-6T-specific T cell clone 2F from KI-855; 2 h, then brefeldin A 4 h at 37°C; IFN-γ; means with SD (n = 3)
Description: (§1) PBMCs were stained with PE- or APC-conjugated tetramers, FITC-conjugated anti-CD3 (Dako, Glostrup, Denmark), Pacific blue-conjugated anti-CD8 MAb (BD Biosciences), and 7-AAD (BD Pharmingen), after which CD3^+ CD8^+ 7AAD^− tetramer^+ T cells were sorted in U-bottomed 96-well microtiter plates (1 cell/well for T cell clones and 100 to 500 cells/well for T cell lines) by using a FACSAria (BD Biosciences). The sorted cells were stimulated with the corresponding epitope peptide and cultured as previously described ([51]). After 2 to 3 weeks in culture, epitope-specific CD8^+ T cells were used in functional assays after their purity had been confirmed by flow cytometry analysis using tetramers.
(§2) 721.221 cells prepulsed with HIV-1 epitope peptide or 721.221 cells infected with HIV-1 were cocultured with T cell clones or lines in a 96-well plate for 2 h at 37°C. Brefeldin A (10 μg/ml) was then added, and the cells were incubated further for 4 h at 37°C. The cells were then fixed with 4% paraformaldehyde and incubated in permeabilization buffer (0.1% saponin–10% fetal bovine serum [FBS]–phosphate-buffered saline [PBS]), after which they were stained with APC-conjugated anti-CD8 MAb (Dako, Denmark) followed by FITC-conjugated anti-IFN-γ MAb (BD Biosciences). The percentage of IFN-γ-producing cells among the CD8^+ T cell population was determined by use of the FACSCanto II.

[2] = tested on: RI8-6T-specific T cell lines (KI-906); test: ICS assay, 721.221-B*52:01 cells prepulsed with peptide, T cell lines from KI-906; settings: two RI8-6T-specific T cell lines from KI-906 (Nov 2010, Aug 2013); 2 h, then brefeldin A 4 h at 37°C; IFN-γ+ of CD8+ T cells; means with SD (n = 3)
Description: as §1, §2

[3] = tested on: HLA-B*52:01-restricted CD8+ T cells (PBMCs of HIV-1 subtype B-infected individuals); test: IFN-γ ELISPOT assay, T cell responses to peptides in HLA-B*52:01+ individuals; settings: positive >200 spots/10^6 CD8+ T cells
Protocol: Ex vivo gamma interferon (IFN-γ) ELISPOT assays were performed as previously described ([6], [49]). The number of spots for a T cell response to each peptide was finally calculated by subtracting the number of spots in wells without peptides. The mean + 3 standard deviations (SD) of the spot number of samples from 13 HIV-1 naive individuals for the peptides was 162 spots/10^6 CD8^+ T cells ([6], [49]). Therefore, we defined >200 spots/10^6 CD8^+ T cells as positive responses.

[4] = tested on: cross-reactive T cell clone 8F (KI-855); test: ICS assay, 721.221-B*52:01 cells prepulsed with peptide, clone 8F from KI-855; settings: cross-reactive clone 8F from KI-855; 2 h, then brefeldin A 4 h at 37°C; IFN-γ; means with SD (n = 3)
Description: as §1, §2

For RMYSPTSI [RI8-6T], which “recognition of 721.221-B*52:01 cells prepulsed with peptide” value (from here on “recognition”) [1] is on record?
Its value is “effectively recognized”.

What about the “recognition” value [2] of the same sequence?
The value was “recognized”.

What about the “number of individuals with epitope-specific T cells detected” value ([3]; 12 HLA-B*52:01+ individuals infected with Gag280V virus, IFN-γ ELISPOT) of the same sequence?
Its value is 4 individuals.

What about the “T cell response to peptide in individual KI-809” value ([3]; PBMCs from wild-type virus-infected KI-809, ELISPOT) of the same sequence?
Its value is “strong T cell response”.

What about the “recognition” value [4] of the same sequence?
The value was “effectively recognized”.
